Source: patent US20170305943A1, “COMPOUNDS FOR THE TREATMENT OF BACTERIAL INFECTIONS” (priority 2014, published 2017)
Values after ≈ are worked out from the molar mass of the structure shown.

tested on: Clostridium difficile (Isolate ID ATCC 9689); assay: Bacterial Assay: Determination of Antibacterial Activity (MIC, broth microdilution or agar dilution); type: cell-based; settings: Clostridioides difficile, ATCC9689, 48 h, read-out: C. difficile MIC Activity Range
Description: Bacterial Assay: Determination of Antibacterial Activity Compounds of the invention were tested for antimicrobial activity by susceptibility testing in liquid or on solid media. Minimum inhibitory concentrations (MICs) for compounds against each strain were determined by the broth microdilution or agar dilution method according to the guidelines of the Clinical Laboratories and Standards Institute, formerly the National Committee for Clinical Laboratory Standards (Clinical Laboratories and Standards Institute. Methods for Dilution Antimicrobial Susceptibility Tests for Bacteria That Grow Anaerobically; Approved Standard-Seventh Edition. Document M11-A7, CLSI, Wayne, Pa., 2007, Clinical Laboratories and Standards Institute). Briefly MICs were determined by visible inspection after 48 hours of growth in the presence of compounds, cultures were grown at 37° C. in anaerobic gas packs using reinforced clostridial medium supplemented with 0.1% defribrinated horse blood. The bacterial strains tested include C. difficile (Clostridium difficile (Isolate ID ATCC 9689)) (Table 2) and two drug resistant clinical isolates (Clostridium difficile (Isolate ID BI-9) and Clostridium difficile (Isolate ID 027-01) (Table 3).
MICs were determined to be within the activity ranges “A” activity≦1.01 μg/mL; “B” activity>1.0 μg/mL-4.0 μg/mL; “C” activity>4.0 μg/mL-16 μg/mL

Structure (SMILES)	MIC
NC(=O)c1c(F)ccc(O[C@H](CO)c2nc(-c3ccc(C(F)(F)F)cc3)c(Br)o2)c1F (racemic) [Compound 32, 3-(1-{5-bromo-4-[4-(trifluoromethyl)phenyl]-1,3-oxazol-2-yl}-2-hydroxyethoxy)-2,6-difluorobenzamide]	< 1.01 mg/L
NC(=O)c1c(F)ccc(OC(COC(=O)Nc2cccnc2)c2nc(-c3ccc(C(F)(F)F)cc3)c(Br)o2)c1F (racemic) [Compound 64, 2-{5-bromo-4-[4-(trifluoromethyl)phenyl]-1,3-oxazol-2-yl}-2-(3-carbamoyl-2,4-difluorophenoxy)ethyl pyridin-3-ylcarbamate]	< 1.01 mg/L
NC(=O)c1c(F)ccc(OC(CNC(=O)OCc2ccccc2)c2nc(-c3ccc(C(F)(F)F)cc3)c(Br)o2)c1F (racemic) [Compound 93, benzyl [2-{5-bromo-4-[4-(trifluoromethyl)phenyl]-1,3-oxazol-2-yl}-2-(3-carbamoyl-2,4-difluorophenoxy)ethyl]carbamate]	1 to 4 mg/L (≈ 1.56 to 6.25 µM)
COC(=O)NCC(Oc1ccc(F)c(C(N)=O)c1F)c1nc(-c2ccc(C(F)(F)F)cc2)c(Br)o1 (racemic) [Compound 94, methyl [2-{5-bromo-4-[4-(trifluoromethyl)phenyl]-1,3-oxazol-2-yl}-2-(3-carbamoyl-2,4-difluorophenoxy)ethyl]carbamate]	1 to 4 mg/L (≈ 1.77 to 7.09 µM)
CCNC(=O)NCC(Oc1ccc(F)c(C(N)=O)c1F)c1nc(-c2ccc(C(F)(F)F)cc2)c(Br)o1 (racemic) [Compound 95, 3-(1-{5-bromo-4-[4-(trifluoromethyl)phenyl]-1,3-oxazol-2-yl}-2-[(ethylcarbamoyl)amino]ethoxy)-2,6-difluorobenzamide]	< 1.01 mg/L
NC(=O)c1c(F)ccc(OC(CNC(=O)c2ccccc2)c2nc(-c3ccc(C(F)(F)F)cc3)c(Br)o2)c1F (racemic) [Compound 96, 3-[2-(benzoylamino)-1-{5-bromo-4-[4-(trifluoromethyl)phenyl]-1,3-oxazol-2-yl}ethoxy]-2,6-difluorobenzamide]	< 1.01 mg/L
NC(=O)c1c(F)ccc(OC(CNC(=O)c2cccnc2)c2nc(-c3ccc(C(F)(F)F)cc3)c(Br)o2)c1F (racemic) [Compound 97, N-[2-{5-bromo-4-[4-(trifluoromethyl)phenyl]-1,3-oxazol-2-yl}-2-(3-carbamoyl-2,4-difluorophenoxy)ethyl]pyridine-3-carboxamide]	1 to 4 mg/L (≈ 1.64 to 6.54 µM)
NC(=O)c1c(F)ccc(OC(CNC(=O)c2ccccn2)c2nc(-c3ccc(C(F)(F)F)cc3)c(Br)o2)c1F (racemic) [Compound 98, N-[2-{5-bromo-4-[4-(trifluoromethyl)phenyl]-1,3-oxazol-2-yl}-2-(3-carbamoyl-2,4-difluorophenoxy)ethyl]pyridine-2-carboxamide]	1 to 4 mg/L (≈ 1.64 to 6.54 µM)
NC(=O)c1c(F)ccc(OC(CO)c2nc(-c3ccc(Cl)s3)c(Br)o2)c1F (racemic) [Compound 101, 3-{1-[5-bromo-4-(5-chlorothiophen-2-yl)-1,3-oxazol-2-yl]-2-hydroxyethoxy}-2,6-difluorobenzamide]	1 to 4 mg/L (≈ 2.08 to 8.34 µM)
CCCCCCCCCOc1ccc(Cl)c(C(N)=O)c1F [Compound 2, 6-chloro-2-fluoro-3-(nonyloxy)benzamide]	< 1.01 mg/L
CCCCCC/C=C/COc1ccc(F)c(C(N)=O)c1F [Compound 3, 2,6-difluoro-3-[(2E)-non-2-en-1-yloxy]benzamide]	< 1.01 mg/L
CCCCCCOCCOc1ccc(F)c(C(N)=O)c1F [Compound 4, 2,6-difluoro-3[2-(hexyloxy)ethoxy]benzamide]	1 to 4 mg/L (≈ 3.32 to 13.3 µM)
CCCCCCCCCOc1ccc(F)c(C(N)=O)c1Cl [Compound 5, 2-chloro-6-fluoro-3-(nonyloxy)benzamide]	< 1.01 mg/L
CC/C=C\CCCCCOc1ccc(F)c(C(N)=O)c1F [Compound 6, 2,6-difluoro-3-[(6Z)-non-6-en-1-yloxy]benzamide]	< 1.01 mg/L
NC(=O)c1c(F)ccc(OCc2nc(-c3ccc(Cl)cc3)no2)c1F [Compound 13, 3-{[3-(4-chlorophenyl)-1,2,4-oxadiazol-5-yl]methoxy}-2,6-difluorobenzamide]	1 to 4 mg/L (≈ 2.73 to 10.9 µM)
C=CCc1ccc2sc(COc3ccc(F)c(C(N)=O)c3F)nc2c1 [Compound 14, 2,6-difluoro-3-{[5-(prop-2-en-1-yl)-1,3-benzothiazol-2-yl]methoxy}benzamide]	4 to 16 mg/L (≈ 11.1 to 44.4 µM)
NC(=O)c1c(F)ccc(OCc2nc(-c3ccc(F)cc3)cs2)c1F [Compound 15, 2,6-difluoro-3-{[4-(4-fluorophenyl)-1,3-thiazol-2-yl]methoxy}benzamide]	1 to 4 mg/L (≈ 2.74 to 11 µM)

Structure (SMILES)	MIC
Cc1ccc(-c2nc(CCOc3ccc(F)c(C(N)=O)c3F)c(C)o2)cc1 [Compound 18, 2,6-difluoro-3-{2-[5-methyl-2-(4-methylphenyl)-1,3-oxazol-4-yl]ethoxy}benzamide]	1 to 4 mg/L (≈ 2.69 to 10.7 µM)
COc1ccc(-c2nc(COc3ccc(F)c(C(N)=O)c3F)oc2Br)cc1 [Compound 22, 3-{[5-bromo-4-(4-methoxyphenyl)-1,3-oxazo1-2-yl]methoxy}-2,6-difluorobenzamide]	< 1.01 mg/L
COc1ncc(-c2csc(C(C)Oc3ccc(F)c(C(N)=O)c3F)n2)s1 (stereo not shown) [Compound 23, 2,6-difluoro-3-[1-(2′-methoxy-4,5′-bi-1,3-thiazol-2-yl)ethoxy]benzamide]	4 to 16 mg/L (≈ 10.1 to 40.3 µM)
COc1ccc(-c2nc(C(C)Oc3ccc(F)c(C(N)=O)c3F)oc2Br)cc1 (stereo not shown) [Compound 24, 3-{1-[5-bromo-4-(4-methoxyphenyl)-1,3-oxazol-2-yl]ethoxy}-2,6-difluorobenzamide]	< 1.01 mg/L
NC(=O)c1c(F)ccc(OC(CO)c2nc(-c3ccc(Cl)cc3)cs2)c1F (stereo not shown) [Compound 25, 3-{1-[4-(4-chlorophenyl)-1,3-thiazol-2-yl]-2-hydroxyethoxy}-2,6-difluorobenzamide]	4 to 16 mg/L (≈ 9.74 to 38.9 µM)
C=CCc1oc(C(C)Oc2ccc(F)c(C(N)=O)c2F)nc1-c1ccc(OC(F)(F)F)cc1 (stereo not shown) [Compound 26, 2,6-difluoro-3-(1-{5-(prop-2-en-1-yl)-4-[4-(trifluoromethoxy)phenyl]-1,3-oxazol-2-yl}ethoxy)benzamide]	4 to 16 mg/L (≈ 8.54 to 34.2 µM)
CCC(Oc1ccc(F)c(C(N)=O)c1F)c1nc(-c2ccc(Cl)cc2)c(Br)o1 (stereo not shown) [Compound 27, 3-{1-[5-bromo-4-(4-chlorophenyl)-1,3-oxazol-2-yl]propoxy}-2,6-difluorobenzamide]	1 to 4 mg/L (≈ 2.12 to 8.48 µM)
CCCc1oc(C(C)Oc2ccc(F)c(C(N)=O)c2F)nc1-c1ccc(OC(F)(F)F)cc1 (stereo not shown) [Compound 28, 2,6-difluoro-3-(1-{5-propyl-4-[4-(trifluoromethoxy)phenyl]-1,3-oxazol-2-yl}ethoxy)benzamide]	4 to 16 mg/L (≈ 8.5 to 34 µM)
CC(Oc1ccc(F)c(C(N)=O)c1F)c1nc(-c2ccc(C(F)(F)F)cc2)c(Br)o1 (stereo not shown) [Compound 29, 3-(1-{5-bromo-4-[4-(trifluoromethyl)phenyl]-1,3-oxazol-2-yl}ethoxy)-2,6-difluorobenzamide]	< 1.01 mg/L
CC(Oc1ccc(F)c(C(N)=O)c1F)c1nc(-c2ccc(Cl)cc2)ns1 (stereo not shown) [Compound 30, 3-{1-[3-(4-chlorophenyl)-1,2,4-thiadiazol-5-yl]ethoxy}-2,6-difluorobenzamide]	< 1.01 mg/L
CC(=O)OCC(Oc1ccc(F)c(C(N)=O)c1F)c1nc(-c2ccc(C(F)(F)F)cc2)c(Br)o1 (stereo not shown) [Compound 31, 2-{5-bromo-4-[4-(trifluoromethyl)phenyl]-1,3-oxazol-2-yl}-2-(3-carbamoyl-2,4-difluorophenoxy)ethyl acetate]	< 1.01 mg/L
CC(=O)OCC(Oc1ccc(F)c(C(N)=O)c1F)c1nc(-c2ccc(C(F)(F)F)cc2)c(Cl)o1 (stereo not shown) [Compound 34, 2-(3-carbamoyl-2,4-difluorophenoxy)-2-{5-chloro-4-[4-(trifluoromethyl)phenyl]-1,3-oxazol-2-yl}ethyl acetate]	< 1.01 mg/L
CNCNC(=O)c1c(F)ccc(OC(C)c2nc(-c3ccc(OC(F)(F)F)cc3)c(Cl)o2)c1F (stereo not shown) [Compound 35, 3-(1-{5-chloro-4-[4-(trifluoromethoxy)phenyl]-1,3-oxazol-2-yl}ethoxy)-2,6-difluoro-N-[(methylamino)methyl]benzamide]	< 1.01 mg/L
CN(C)CC(=O)OCC(Oc1ccc(F)c(C(N)=O)c1F)c1nc(-c2ccc(C(F)(F)F)cc2)c(Br)o1 (stereo not shown) [Compound 36, 2-{5-bromo-4-[4-(trifluoromethyl)phenyl]-1,3-oxazol-2-yl}-2-(3-carbamoyl-2,4-difluorophenoxy)ethyl N,N-dimethylglycinate]	< 1.01 mg/L
CNCC(=O)OCC(Oc1ccc(F)c(C(N)=O)c1F)c1nc(-c2ccc(Cl)cc2)c(Cl)o1 (stereo not shown) [Compound 37, 2-(3-carbamoyl-2,4-difluorophenoxy)-2-[5-chloro-4-(4-chlorophenyl)-1,3-oxazol-2-yl]ethyl N-methylglycinate]	4 to 16 mg/L (≈ 8 to 32 µM)
NC(=O)c1c(F)ccc(OC(COC(=O)CN2C(=O)c3ccccc3C2=O)c2nc(-c3ccc(C(F)(F)F)cc3)c(Br)o2)c1F (stereo not shown) [Compound 38, 2-{5-bromo-4-[4-(trifluoromethyl)phenyl]-1,3-oxazol-2-yl}-2-(3-carbamoyl-2,4-difluorophenoxy)ethyl (1,3-dioxo-1,3-dihydro-2H-isoindo1-2-yl)acetate]	< 1.01 mg/L
CNCC(=O)OCC(Oc1ccc(F)c(C(N)=O)c1F)c1nc(-c2ccc(C(F)(F)F)cc2)c(Br)o1 (stereo not shown) [Compound 39, 2-{5-bromo-4-[4-(trifluoromethyl)phenyl]-1,3-oxazol-2-yl}-2-(3-carbamoyl-2,4-difluorophenoxy)ethyl N-methylglycinate]	< 1.01 mg/L
